Test results taken from ChEMBL document CHEMBL4507274 (2021).

Columns and labels:
[1] = target: Muscarinic acetylcholine receptor M5 (Homo sapiens) (UniProt P08912); details: Compound concentration 10.0 uM
[2] = target: LIM domain kinase 2 (Homo sapiens) (UniProt P53671); details: Compound concentration 100.0 nM
[3] = target: Mitogen-activated protein kinase kinase kinase 1 (Homo sapiens) (UniProt Q13233); details: Compound concentration 100.0 nM
[4] = target: T1, Serine/threonine-protein kinase Chk1 (Homo sapiens) (UniProt O14757); details: Compound concentration 100.0 nM
T1 sequence (whole entry): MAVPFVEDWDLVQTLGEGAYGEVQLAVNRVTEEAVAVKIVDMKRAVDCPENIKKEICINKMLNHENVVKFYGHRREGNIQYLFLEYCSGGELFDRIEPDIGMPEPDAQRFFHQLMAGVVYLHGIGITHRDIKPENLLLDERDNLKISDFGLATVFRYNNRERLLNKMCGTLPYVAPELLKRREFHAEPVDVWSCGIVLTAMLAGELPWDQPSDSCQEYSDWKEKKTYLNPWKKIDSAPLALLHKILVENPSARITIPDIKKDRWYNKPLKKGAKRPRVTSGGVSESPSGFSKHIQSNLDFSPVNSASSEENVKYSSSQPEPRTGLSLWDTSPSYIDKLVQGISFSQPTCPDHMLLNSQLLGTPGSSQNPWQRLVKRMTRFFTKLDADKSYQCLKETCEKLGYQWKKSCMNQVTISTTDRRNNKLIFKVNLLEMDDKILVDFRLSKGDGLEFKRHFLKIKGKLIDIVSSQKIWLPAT

[5] = system: Phosphatidylinositol 4,5-bisphosphate 3-kinase catalytic subunit alpha isoform (Homo sapiens), P42336 [E545K]; details: Compound concentration 100.0 nM
[6] = target: Beta-2 adrenergic receptor (Homo sapiens) (UniProt P07550); details: Compound concentration 10.0 uM
[7] = target: Mitogen-activated protein kinase kinase kinase 19 (Homo sapiens) (UniProt Q56UN5); details: Compound concentration 100.0 nM
Sequence of Mitogen-activated protein kinase kinase kinase 19 (Homo sapiens) (Q56UN5 whole entry): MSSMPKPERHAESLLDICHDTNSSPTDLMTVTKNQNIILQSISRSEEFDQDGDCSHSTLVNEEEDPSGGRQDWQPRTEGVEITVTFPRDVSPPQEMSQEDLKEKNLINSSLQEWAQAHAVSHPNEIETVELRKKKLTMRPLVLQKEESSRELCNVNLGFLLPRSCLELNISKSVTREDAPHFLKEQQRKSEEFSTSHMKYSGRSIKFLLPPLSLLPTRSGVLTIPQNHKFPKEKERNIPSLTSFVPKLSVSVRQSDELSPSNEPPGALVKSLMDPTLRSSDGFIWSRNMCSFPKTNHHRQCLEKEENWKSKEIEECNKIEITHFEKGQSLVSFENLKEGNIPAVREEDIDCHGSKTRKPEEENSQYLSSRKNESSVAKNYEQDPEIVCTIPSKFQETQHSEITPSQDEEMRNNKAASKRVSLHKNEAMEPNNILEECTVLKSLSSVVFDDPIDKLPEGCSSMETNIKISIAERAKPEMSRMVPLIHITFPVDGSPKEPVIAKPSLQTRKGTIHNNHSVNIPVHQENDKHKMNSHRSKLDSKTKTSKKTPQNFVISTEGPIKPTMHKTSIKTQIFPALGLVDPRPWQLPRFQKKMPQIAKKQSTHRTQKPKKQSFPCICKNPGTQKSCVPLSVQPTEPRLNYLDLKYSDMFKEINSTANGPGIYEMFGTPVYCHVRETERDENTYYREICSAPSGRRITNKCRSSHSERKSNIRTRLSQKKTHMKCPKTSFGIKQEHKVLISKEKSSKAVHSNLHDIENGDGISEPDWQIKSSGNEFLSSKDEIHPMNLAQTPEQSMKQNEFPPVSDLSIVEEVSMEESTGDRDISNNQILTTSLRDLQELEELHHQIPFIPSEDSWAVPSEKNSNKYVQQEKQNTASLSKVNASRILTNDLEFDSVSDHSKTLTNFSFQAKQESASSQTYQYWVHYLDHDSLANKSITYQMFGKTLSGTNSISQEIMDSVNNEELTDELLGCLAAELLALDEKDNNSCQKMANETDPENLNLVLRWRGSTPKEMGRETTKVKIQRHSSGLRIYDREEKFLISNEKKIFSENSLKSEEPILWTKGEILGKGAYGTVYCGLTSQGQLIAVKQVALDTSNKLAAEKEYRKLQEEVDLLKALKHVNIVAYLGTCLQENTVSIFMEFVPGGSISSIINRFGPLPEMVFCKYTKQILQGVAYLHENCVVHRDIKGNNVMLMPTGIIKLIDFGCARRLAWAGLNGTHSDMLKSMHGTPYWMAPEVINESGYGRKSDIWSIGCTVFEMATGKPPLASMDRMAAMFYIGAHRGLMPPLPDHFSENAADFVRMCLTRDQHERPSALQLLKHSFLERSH

[8] = target: Serine/threonine-protein kinase TAO1 (Homo sapiens) (UniProt Q7L7X3); details: Compound concentration 100.0 nM
[9] = target: Histamine H1 receptor (Homo sapiens) (UniProt P35367); details: Compound concentration 10.0 uM
[10] = target: Serine/threonine-protein kinase tousled-like 1 (Homo sapiens) (UniProt Q9UKI8); details: Compound concentration 100.0 nM
[11] = target: Serine/threonine-protein kinase Sgk3 (Homo sapiens) (UniProt Q96BR1); details: Compound concentration 100.0 nM
[12] = target: Serine/threonine-protein kinase VRK2 (Homo sapiens) (UniProt Q86Y07); details: Compound concentration 100.0 nM
[13] = target: Mitogen-activated protein kinase 1 (Homo sapiens) (UniProt P28482); details: Compound concentration 100.0 nM
Sequence of Mitogen-activated protein kinase 1 (Homo sapiens) (P28482 whole entry): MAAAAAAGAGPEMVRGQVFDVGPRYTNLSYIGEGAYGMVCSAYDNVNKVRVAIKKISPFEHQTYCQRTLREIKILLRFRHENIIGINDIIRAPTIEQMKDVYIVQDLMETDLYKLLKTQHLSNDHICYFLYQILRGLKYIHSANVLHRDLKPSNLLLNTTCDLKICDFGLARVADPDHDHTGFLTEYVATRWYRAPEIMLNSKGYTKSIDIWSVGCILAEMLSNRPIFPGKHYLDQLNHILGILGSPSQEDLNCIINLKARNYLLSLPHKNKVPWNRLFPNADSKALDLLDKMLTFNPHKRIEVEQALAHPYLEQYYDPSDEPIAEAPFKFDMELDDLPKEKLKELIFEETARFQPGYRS

[14] = system: Receptor-type tyrosine-protein kinase FLT3 (Homo sapiens), P36888 [N841I]; details: Compound concentration 100.0 nM
[15] = target: Cyclin-dependent kinase 3 (Homo sapiens) (UniProt Q00526); details: Compound concentration 100.0 nM
[16] = target: Calcium/calmodulin-dependent protein kinase type 1G (Homo sapiens) (UniProt Q96NX5); details: Compound concentration 100.0 nM
Sequence of Calcium/calmodulin-dependent protein kinase type 1G (Homo sapiens) (Q96NX5 whole entry): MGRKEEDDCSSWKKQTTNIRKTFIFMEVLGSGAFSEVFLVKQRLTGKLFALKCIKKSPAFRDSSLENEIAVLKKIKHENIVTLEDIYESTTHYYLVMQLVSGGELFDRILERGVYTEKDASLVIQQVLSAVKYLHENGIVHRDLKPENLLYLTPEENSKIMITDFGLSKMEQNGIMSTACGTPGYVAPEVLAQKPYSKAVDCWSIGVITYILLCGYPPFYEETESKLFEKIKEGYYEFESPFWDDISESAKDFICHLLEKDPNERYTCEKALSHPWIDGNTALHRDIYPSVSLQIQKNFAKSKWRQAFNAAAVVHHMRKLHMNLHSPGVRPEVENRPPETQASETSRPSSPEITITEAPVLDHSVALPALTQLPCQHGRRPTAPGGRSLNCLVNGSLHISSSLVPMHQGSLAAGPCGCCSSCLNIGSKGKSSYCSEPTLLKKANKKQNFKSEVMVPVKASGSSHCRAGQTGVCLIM

[17] = target: Ribosomal protein S6 kinase alpha-2 (Homo sapiens) (UniProt Q15349); details: Compound concentration 100.0 nM
[18] = target: Phosphatidylinositol 5-phosphate 4-kinase type-2 gamma (Homo sapiens) (UniProt Q8TBX8); details: Compound concentration 100.0 nM
Sequence of Phosphatidylinositol 5-phosphate 4-kinase type-2 gamma (Homo sapiens) (Q8TBX8 whole entry): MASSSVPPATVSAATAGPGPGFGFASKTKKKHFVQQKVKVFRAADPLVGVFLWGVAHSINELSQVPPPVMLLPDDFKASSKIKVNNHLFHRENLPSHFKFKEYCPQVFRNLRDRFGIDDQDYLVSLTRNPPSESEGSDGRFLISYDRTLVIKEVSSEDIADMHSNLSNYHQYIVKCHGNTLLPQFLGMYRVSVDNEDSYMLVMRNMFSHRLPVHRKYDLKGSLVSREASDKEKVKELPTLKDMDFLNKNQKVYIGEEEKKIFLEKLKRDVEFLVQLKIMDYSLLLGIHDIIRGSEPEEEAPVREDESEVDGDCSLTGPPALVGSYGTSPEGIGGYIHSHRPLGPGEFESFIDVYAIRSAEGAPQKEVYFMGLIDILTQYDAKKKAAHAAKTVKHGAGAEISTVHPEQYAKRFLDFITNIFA

[19] = target: Macrophage colony-stimulating factor 1 receptor (Homo sapiens) (UniProt P07333); details: Compound concentration 100.0 nM
Sequence of Macrophage colony-stimulating factor 1 receptor (Homo sapiens) (P07333 whole entry): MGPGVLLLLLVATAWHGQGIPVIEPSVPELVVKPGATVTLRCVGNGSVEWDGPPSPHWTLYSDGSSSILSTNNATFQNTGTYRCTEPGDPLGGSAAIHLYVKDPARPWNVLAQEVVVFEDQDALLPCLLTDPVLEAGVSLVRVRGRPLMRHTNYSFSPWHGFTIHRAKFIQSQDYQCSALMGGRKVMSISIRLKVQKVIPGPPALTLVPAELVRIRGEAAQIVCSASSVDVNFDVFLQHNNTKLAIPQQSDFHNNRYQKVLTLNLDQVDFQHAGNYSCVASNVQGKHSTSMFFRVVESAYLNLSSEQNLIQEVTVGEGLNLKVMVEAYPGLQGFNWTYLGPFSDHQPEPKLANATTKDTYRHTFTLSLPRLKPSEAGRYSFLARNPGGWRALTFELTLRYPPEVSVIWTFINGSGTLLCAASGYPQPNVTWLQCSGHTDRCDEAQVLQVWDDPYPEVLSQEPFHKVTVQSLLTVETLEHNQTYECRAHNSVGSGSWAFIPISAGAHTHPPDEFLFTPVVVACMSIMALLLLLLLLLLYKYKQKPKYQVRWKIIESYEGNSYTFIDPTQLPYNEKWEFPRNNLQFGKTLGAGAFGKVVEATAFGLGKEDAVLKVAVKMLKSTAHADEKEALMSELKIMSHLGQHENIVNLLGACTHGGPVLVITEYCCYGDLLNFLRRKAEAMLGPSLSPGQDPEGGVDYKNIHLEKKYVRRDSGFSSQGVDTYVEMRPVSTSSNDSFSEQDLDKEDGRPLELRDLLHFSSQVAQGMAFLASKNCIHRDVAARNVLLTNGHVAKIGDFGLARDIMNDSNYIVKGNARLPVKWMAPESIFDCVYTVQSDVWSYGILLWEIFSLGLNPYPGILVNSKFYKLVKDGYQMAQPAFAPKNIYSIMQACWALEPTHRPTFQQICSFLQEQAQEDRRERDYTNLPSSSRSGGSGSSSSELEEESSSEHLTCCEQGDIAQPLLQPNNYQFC

[20] = target: Serine/threonine-protein kinase 35 (Homo sapiens) (UniProt Q8TDR2); details: Compound concentration 100.0 nM
[21] = target: Myosin light chain kinase (Homo sapiens) (UniProt Q32MK0); details: Compound concentration 100.0 nM
[22] = target: Cyclin-dependent kinase-like 2 (Homo sapiens) (UniProt Q92772); details: Compound concentration 100.0 nM
[23] = target: Insulin-like growth factor 1 receptor (Homo sapiens) (UniProt P08069); details: Compound concentration 100.0 nM
[24] = target: Phosphatidylinositol 4-phosphate 3-kinase C2 domain-containing subunit beta (Homo sapiens) (UniProt O00750); details: Compound concentration 100.0 nM
[25] = system: Proto-oncogene tyrosine-protein kinase receptor Ret (Homo sapiens), P07949 [M918T]; details: Compound concentration 100.0 nM
[26] = target: Calcium/calmodulin-dependent protein kinase type II subunit gamma (Homo sapiens) (UniProt Q13555); details: Compound concentration 100.0 nM
[27] = target: T2, Mitogen-activated protein kinase 12 (Homo sapiens) (UniProt P53778); details: Compound concentration 100.0 nM
T2 sequence (whole entry): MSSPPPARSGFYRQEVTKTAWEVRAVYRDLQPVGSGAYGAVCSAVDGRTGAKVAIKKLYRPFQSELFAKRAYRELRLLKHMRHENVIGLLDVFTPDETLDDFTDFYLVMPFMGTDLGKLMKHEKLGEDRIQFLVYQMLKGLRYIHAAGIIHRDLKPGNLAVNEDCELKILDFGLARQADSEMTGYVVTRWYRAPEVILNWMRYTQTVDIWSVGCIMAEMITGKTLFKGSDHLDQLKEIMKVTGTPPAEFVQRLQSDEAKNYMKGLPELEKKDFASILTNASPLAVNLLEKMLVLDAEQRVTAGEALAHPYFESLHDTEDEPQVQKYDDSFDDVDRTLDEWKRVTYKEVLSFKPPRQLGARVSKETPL

[28] = system: Phosphatidylinositol 4,5-bisphosphate 3-kinase catalytic subunit alpha isoform (Homo sapiens), P42336 [H1047L]; details: Compound concentration 100.0 nM
[29] = target: Homeodomain-interacting protein kinase 4 (Homo sapiens) (UniProt Q8NE63); details: Compound concentration 100.0 nM
[30] = target: Calcium/calmodulin-dependent protein kinase type 1B (Homo sapiens) (UniProt Q6P2M8); details: Compound concentration 100.0 nM
Sequence of Calcium/calmodulin-dependent protein kinase type 1B (Homo sapiens) (Q6P2M8 whole entry): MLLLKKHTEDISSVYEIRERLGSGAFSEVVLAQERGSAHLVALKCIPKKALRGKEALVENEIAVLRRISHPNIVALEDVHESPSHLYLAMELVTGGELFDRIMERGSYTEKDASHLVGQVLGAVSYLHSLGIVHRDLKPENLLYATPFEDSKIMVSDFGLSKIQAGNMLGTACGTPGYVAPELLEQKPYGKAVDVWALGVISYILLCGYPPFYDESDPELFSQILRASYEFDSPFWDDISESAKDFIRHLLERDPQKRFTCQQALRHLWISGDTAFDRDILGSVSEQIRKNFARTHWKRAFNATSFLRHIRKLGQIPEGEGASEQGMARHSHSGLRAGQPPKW

[31] = target: Transient receptor potential cation channel subfamily M member 6 (Homo sapiens) (UniProt Q9BX84); details: Compound concentration 100.0 nM
[32] = target: Casein kinase I isoform epsilon (Homo sapiens) (UniProt P49674); details: Compound concentration 100.0 nM
[33] = target: Serine/threonine-protein kinase N2 (Homo sapiens) (UniProt Q16513); details: Compound concentration 100.0 nM
Sequence of Serine/threonine-protein kinase N2 (Homo sapiens) (Q16513 whole entry, looked up): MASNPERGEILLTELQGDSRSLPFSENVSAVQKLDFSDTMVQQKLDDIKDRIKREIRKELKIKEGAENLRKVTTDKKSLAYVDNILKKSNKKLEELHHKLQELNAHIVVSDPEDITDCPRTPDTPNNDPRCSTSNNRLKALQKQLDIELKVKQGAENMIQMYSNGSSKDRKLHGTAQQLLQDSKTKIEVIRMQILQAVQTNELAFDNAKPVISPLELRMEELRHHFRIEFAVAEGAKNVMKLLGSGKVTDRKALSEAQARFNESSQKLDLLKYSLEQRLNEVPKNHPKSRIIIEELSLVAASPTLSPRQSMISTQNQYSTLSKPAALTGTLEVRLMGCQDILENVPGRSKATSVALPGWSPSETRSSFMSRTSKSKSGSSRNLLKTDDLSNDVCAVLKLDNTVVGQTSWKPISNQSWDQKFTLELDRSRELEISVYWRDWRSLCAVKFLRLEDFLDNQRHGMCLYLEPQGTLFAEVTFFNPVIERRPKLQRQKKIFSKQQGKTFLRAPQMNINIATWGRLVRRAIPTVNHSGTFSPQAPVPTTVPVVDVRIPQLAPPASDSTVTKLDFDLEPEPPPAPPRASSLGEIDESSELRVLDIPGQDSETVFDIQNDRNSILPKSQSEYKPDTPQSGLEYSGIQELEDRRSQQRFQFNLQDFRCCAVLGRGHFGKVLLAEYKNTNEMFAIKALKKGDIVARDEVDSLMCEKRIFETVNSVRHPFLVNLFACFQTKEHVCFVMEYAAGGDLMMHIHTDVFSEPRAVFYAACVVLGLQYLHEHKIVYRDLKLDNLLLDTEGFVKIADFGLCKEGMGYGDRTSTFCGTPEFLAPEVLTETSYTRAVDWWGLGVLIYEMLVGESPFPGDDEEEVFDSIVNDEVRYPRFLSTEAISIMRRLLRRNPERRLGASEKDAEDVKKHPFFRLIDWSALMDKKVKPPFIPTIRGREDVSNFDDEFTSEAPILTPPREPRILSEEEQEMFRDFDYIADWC

Cn1cc(Cl)c2c(Oc3c(F)cc(Nc4cc(Cl)nc(N)n4)cc3F)ccnc21 [BAY-4900]
inactive: inhibition [1] 3.3% | residual activity [2] 100% | residual activity [3] 76% | residual activity [4] 100% | residual activity [5] 78% | inhibition [6] 10.2% | residual activity [7] 75% | residual activity [8] 97% | inhibition [9] 3.19% | residual activity [10] 100% | residual activity [11] 90% | residual activity [12] 81% | residual activity [13] 100% | residual activity [14] 96% | residual activity [15] 100% | residual activity [16] 100% | residual activity [17] 95% | residual activity [18] 96% | residual activity [19] 89% | residual activity [20] 99% | residual activity [21] 94% | residual activity [22] 100% | residual activity [23] 97% | residual activity [24] 83% | residual activity [25] 92% | residual activity [26] 100% | residual activity [27] 100% | residual activity [28] 83% | residual activity [29] 100% | residual activity [30] 90% | residual activity [31] 77% | residual activity [32] 98% | residual activity [33] 75%

Cc1c[nH]c2nccc(Oc3c(F)cc(Nc4cc(Cl)nc(N)n4)cc3F)c12 [BAY-549]
inactive: inhibition [1] -3.6% | residual activity [2] 79% | residual activity [3] 82% | residual activity [4] 100% | residual activity [5] 82% | inhibition [6] -7.12% | residual activity [7] 74% | residual activity [8] 84% | inhibition [9] -0.06% | residual activity [10] 100% | residual activity [11] 88% | residual activity [12] 76% | residual activity [13] 99% | residual activity [14] 76% | residual activity [15] 97% | residual activity [16] 97% | residual activity [17] 82% | residual activity [18] 100% | residual activity [19] 100% | residual activity [20] 94% | residual activity [21] 91% | residual activity [22] 93% | residual activity [23] 86% | residual activity [24] 88% | residual activity [25] 100% | residual activity [26] 96% | residual activity [27] 100% | residual activity [28] 81% | residual activity [29] 100% | residual activity [30] 94% | residual activity [31] 83% | residual activity [32] 64% | residual activity [33] 100%
